“Also recorded” adds a separate entry of the source.
Columns and labels:
[1] = tested on: SARS-CoV-2 replicon; type: cell-based
[2] = tested on: LR7 cells; test: MTS-based cell viability assay in LR7 cells; design: species or system mouse; conditions: 50 μM, uninfected LR7 cells
Method: LR7, LLC-Mk2 or Vero cells were seeded in 96-well plates and cultured overnight. Next, the medium was changed to a new one supplemented with different concentrations (in triplicate) of analyzed compounds. Following the 2 days (LR7 and Vero) or 4 days (LLC-Mk-2) of incubation, CellTiter 96 AQueous nonradioactive cell proliferation assay (Promega) was performed according to the manufacturer’s instruction. The half-maximal cytotoxic concentration (CC50) was calculated as the concentration of a compound needed to reduce cell viability by 50% using GraphPad Prism software (version 5.01, GraphPad Software, San Diego, CA).

[3] = tested on: human coronavirus strain NL63 (HCoV-NL63); test: HCoV-NL63 N protein expression in LLC-Mk2 cells, Western blot and densitometry; type: cell-based; conditions: 50 μM, MOI 0.01, 4 days p.i., Western blot/densitometry
Method: LLC-Mk2 monolayers grown in 24-well plates were infected with HCoV-NL63 at an MOI value of 0.01 for 2 h. Unbound virus was removed, and cells were cultured in medium supplemented with different concentrations of compounds. Four days postinfection, cells were collected and lysed in CellLyticM Cell Lysis Reagent (Sigma). Following the protein separation by SDS-PAGE and transfer to PVDF membranes, proteins were immunoblotted using specific mouse anti-N NL63 Abs (Eurofins, Spain) or rabbit anti-β-catenin Abs (Santa Cruz), followed by antimouse or antirabbit secondary antibodies conjugated with HRP. Proteins were visualized and analyzed by chemiluminescence using the UVITEC Cambridge Alliance MINI HD detection system. The densitometric analysis of cells treated with 50 μM dose of a panel of glycoconjugates was performed based on three biological replicates of N and β-catenin immunoblots. The N protein levels were expressed as a percentage relative to DMSO-treated infected cells, while β-catenin levels were expressed as a percentage relative to noninfected control cells. The data were presented as the ratio of N/β-catenin for each sample, normalized accordingly.

[4] = tested on: murine hepatitis virus strain A59 (MHV); test: Reduction of MHV cytopathic effect (CPE) in LR7 cells, MTS/PMS readout; type: cell-based; conditions: 50 μM, MOI 0.01, 24 h
Method: LR7 cells were seeded in a 96-well plate and cultured overnight. Next, the cells were infected with MHV at an MOI value of 0.01 in medium without FBS. Following 1 h of incubation, the medium containing the virus was collected and cells were covered with a medium supplemented with different concentrations (in triplicate) of the analyzed compounds or DMSO. 24 h p.i. cells viability was evaluated by CellTiter 96 AQueous nonradioactive cell proliferation assay (Promega) according to the manufacturer’s instruction.

Row | Structure (SMILES) | inhibition of SARS-CoV-2 replication (replicon) [1] | reduction of cell viability (cytotoxicity in uninfected cells) [2] | HCoV-NL63 N protein level [3] | protection against MHV-induced CPE [4]
1 | CC(C)(C)[C@H](NC(=O)C(F)(F)F)C(=O)N1C[C@H]2[C@@H]([C@H]1C(=O)N[C@H](C#N)C[C@@H]1CCNC1=O)C2(C)C [nirmatrelvir, reference compound] | inhibited SARS-CoV-2 replication |  |  | 
2 | CC(=O)OC[C@H]1O[C@@H](SCn2cc(CNC(=O)[C@H]3O[C@@H](n4ccc(=O)[nH]c4=O)[C@H](O[Si](C)(C)C(C)(C)C)[C@@H]3O[Si](C)(C)C(C)(C)C)nn2)[C@H](OC(C)=O)[C@@H](OC(C)=O)[C@H]1OC(C)=O [Compound 23, N-Uracil [(1-(2″,3″,4″,6″-tetra-O-Acetyl-β-D-galactopyranosylthiomethyl)-1,2-3-triazol-4-yl)-methyl]-1′-deoxy-2′,3′-di-O-tert-butyldimethylsilyl-β-D-ribofuranuronamide] |  | 10–30% | No significant reduction | 
3 | CC(=O)OC[C@H]1O[C@@H](OCCn2cc(CNC(=O)[C@H]3O[C@@H](n4ccc(=O)[nH]c4=O)[C@H](O[Si](C)(C)C(C)(C)C)[C@@H]3O[Si](C)(C)C(C)(C)C)nn2)[C@H](OC(C)=O)[C@@H](OC(C)=O)[C@H]1OC(C)=O [Compound 17, N-Uracil [(1-(2″, 3″, 4″, 6″-tetra-O-Acetyl-β-D-galactopyranosyloxyethyl)-1,2-3-triazol-4-yl)-methyl]-1′-deoxy-2′,3′-di-O-tert-butyldimethylsilyl-β-D-ribofuranuronamide] |  | 10–30% | No significant reduction | 
4 | CC(=O)OC[C@H]1O[C@@H](NC(=O)Cn2cc(CNC(=O)[C@H]3O[C@@H](n4ccc(=O)[nH]c4=O)[C@H](O[Si](C)(C)C(C)(C)C)[C@@H]3O[Si](C)(C)C(C)(C)C)nn2)[C@H](OC(C)=O)[C@@H](OC(C)=O)[C@@H]1OC(C)=O [Compound 18, N-Uracil [((1-(2-oxo-(2″,3″,4″,6″-tetra-O-Acetyl-β-D-glucopyranosyl)-amino)-ethyl)-1,2-3-triazol-4-yl)-methyl]-1′-deoxy-2′,3′-di-O-tert-butyldimethylsilyl-β-D-ribofuranuronamide] |  | 10–30% | No significant reduction | limited anti-MHV activity
5 | CC(=O)OC[C@H]1O[C@@H](NC(=O)Cn2cc(CNC(=O)[C@H]3O[C@@H](n4ccc(=O)[nH]c4=O)[C@H](O[Si](C)(C)C(C)(C)C)[C@@H]3O[Si](C)(C)C(C)(C)C)nn2)[C@H](OC(C)=O)[C@@H](OC(C)=O)[C@H]1OC(C)=O [Compound 19, N-Uracil [((1-(2-oxo-(2″,3″,4″,6″-tetra-O-Acetyl-β-D-galactopyranosyl)-amino)-ethyl)-1,2-3-triazol-4-yl)-methyl]-1′-deoxy-2′,3′-di-O-tert-butyldimethylsilyl-β-D-ribofuranuronamide] |  | 10–30% | No significant reduction | limited anti-MHV activity
6 | CC(=O)OC[C@H]1O[C@@H](OCCn2cc(CNC(=O)[C@H]3O[C@@H](n4ccc(=O)[nH]c4=O)[C@H](O[Si](C)(C)C(C)(C)C)[C@@H]3O[Si](C)(C)C(C)(C)C)nn2)[C@H](OC(C)=O)[C@@H](OC(C)=O)[C@@H]1OC(C)=O [Compound 16, N-Uracil [(1-(2″,3″,4″,6″-tetra-O-Acetyl-β-D-glucopyranosyloxyethyl)-1,2-3-triazol-4-yl)-methyl]-1′-deoxy-2′,3′-di-O-tert-butyldimethylsilyl-β-D-ribofuranuronamide] |  | 10–30% | No significant reduction | 
7 | CC(=O)OC[C@H]1O[C@@H](SCn2cc(COC[C@H]3O[C@@H](n4ccc(=O)[nH]c4=O)[C@H](O[Si](C)(C)C(C)(C)C)[C@@H]3O[Si](C)(C)C(C)(C)C)nn2)[C@H](OC(C)=O)[C@@H](OC(C)=O)[C@H]1OC(C)=O [Compound 25, 2′,3′-di-O-tert-Butyldimethylsilyl-5′-O-[(1-(2″,3″,4″,6″-tetra-O-acetyl-β-D-galactopyranosylthiomethyl)-1,2-3-triazol-4-yl)-methyl]-uridine] |  |  | significantly reduced; also recorded: No N protein was detected | lower activity against MHV
8 | CC(=O)OC[C@H]1O[C@@H](OCc2cn(C[C@H]3O[C@@H](n4ccc(=O)[nH]c4=O)[C@H](O[Si](C)(C)C(C)(C)C)[C@@H]3O[Si](C)(C)C(C)(C)C)nn2)[C@H](OC(C)=O)[C@@H](OC(C)=O)[C@@H]1OC(C)=O [Compound 14, 2′,3′-di-O-tert-Butyldimethylsilyl-5′-deoxy-5′-[4-(2″,3″,4″,6″-tetra-O-acetyl-β-D-glucopyranosyloxymethyl)-1,2-3-triazol-1-yl]-uridine] |  | 10–30% | significantly reduced; also recorded: weaker activity against HCoV-NL63 | significantly reduced cell death
9 | CC(=O)OC[C@H]1O[C@@H](SCn2cc(CNC(=O)[C@H]3O[C@@H](n4ccc(=O)[nH]c4=O)[C@H](O[Si](C)(C)C(C)(C)C)[C@@H]3O[Si](C)(C)C(C)(C)C)nn2)[C@H](OC(C)=O)[C@@H](OC(C)=O)[C@@H]1OC(C)=O [Compound 22, N-Uracil [(1-(2″,3″,4″,6″-tetra-O-Acetyl-β-D-glucopyranosylthiomethyl)-1,2-3-triazol-4-yl)-methyl]-1′-deoxy-2′,3′-di-O-tert-butyldimethylsilyl-β-D-ribofuranuronamide] |  | no detectable toxicity | No significant reduction | significantly reduced cell death

Reference: PMC12406196, “Anticoronavirus Activity of Uridine Glycoconjugates Containing a 1,2,3-Triazole Moiety” (Journal of Medicinal Chemistry, 2025)
